PMC11032351, “Epigenetic modulation through BET bromodomain inhibitors as a novel therapeutic strategy for progranulin-deficient frontotemporal dementia” (Scientific Reports, 2024)

Test system: PGRN protein levels
Experiment: PGRN quantification (Jess) in human NPCs
Format: cell-based
Settings: for increase in PGRN protein levels: 1 µM for 24 h; for increase in PGRN: lysed immediately
Protocol: PGRN capillary gel electrophoresis experiments were performed using Jess (Bio-Techne) and data were processed and analyzed using Compass for Simple Western software (version 6.0). Runs were conducted using EZ Standard Pack 1 12-230 kDa (Bio-Techne PS-ST01EZ-8), 12-230 kDa pre-filled plates (PS-PP03), 12-230 kDa separation module (SMW004), anti-rabbit HRP detection ([…]-001), and total protein detection modules (DM-TP01, biotin labeling reagent 042-973) according to the manufacturer's instructions, and with anti-PGRN primary (Abcam ab208777) diluted 1:50 in milk-free antibody dilution buffer (043-524). […] All intensity quantifications are normalized to the total protein assay quantification unless otherwise indicated. NPCs were cultured normally in 6-well plates as described previously. Upon reaching confluency, DMSO or MLN-4924 (Cayman #15,217, 10 mM stock in DMSO) were diluted 1:5000 into NPC media with growth factors. 1 mL of media was aspirated from the cell cultures, and 1 mL of MLN-4924 or DMSO dilutions were then added to respective wells (final well concentration: 1 μM MLN-4924 in select wells, 0.01% DMSO for all wells). Plates returned to the incubator. […] Plates returned to the incubator. After 4 h, to the indicated wells is directly added 1 μL 2 mM mivebresib (MedChem Express HY-100015) in DMSO for a final concentration of 1 μM, or 1 μL DMSO. All plates were returned to the incubator overnight. The next day, 24 h from the addition of mivebresib, plates were removed from the incubator, and all wells were washed with 2 mL PBS, and then lysed in 300 μL M-PER lysis buffer with protease inhibitors. Cells were allowed to lyse for 15 min at 4 °C with light nutation, and then lysate was transferred to a 1.5-mL Eppendorf tube which was then spun down at 20 k rcf at 4 °C for 10 min. 200 μL of supernatant was then transferred to a fresh, labeled Eppendorf rube, which was then stored at - 20 °C prior to further analysis. Sample concentration was quantified using the BCA assay as described above, and normalized to 250 μg/mL in M-PER lysis buffer prior to PGRN quantification using the Jess. NPCs were cultured normally as described previously. 6-well plates were seeded at 300,000 cells/well in 2 mL of NPC media with EGF, bFGF, and heparin as described above. Cells were allowed to grow to confluency for three nights at 37 °C with 5% CO2. […] These solutions were then diluted 1:10 in NPC media with growth factors containing 0.2% DMSO to make 100 nM compound solutions. Treatment wells were washed with 2 mL PBS prior to addition of 2 mL NPC media with growth factors containing compound (or DMSO only) at indicated concentrations (3 replicates per condition, 6 DMSO replicates). Plates were then allowed to incubate at 37 °C with 5% CO2 for 24 h. After 24 h, cells were removed from the incubator, washed with 1 mL PBS, and then lysed with 500 μL M-PER lysis buffer (Thermo Fisher #78,501) with 1 cOmplete Mini, EDTA-free protease inhibitor added (Sigma-Aldrich#11,836,170,001) per 15 mL lysis buffer. Plates were allowed to nutate at 4 °C for 15 min before transferring the lysate to 1.5 mL Eppendorf tubes, which were then spun down at 20,000 rcf at 4 °C for 10 min. 400 μL of the supernatant was then transferred to fresh 1.5-mL Eppendorf tubes, which were then frozen down at - 80 °C prior to further use. Samples were removed from the - 80 °C and concentrations were determined via BCA assay (Thermo Scientific #23,227) using a pre-diluted BSA standard (Life Technologies #23,208) on a 96-well polystyrene plate (Thermo Fisher #12,565,500). Samples were diluted to 0.25 mg/mL using M-PER lysis buffer prior to PGRN quantification using the Jess. NPCs were cultured as described above, and seeded onto coated 24-well plates at 150,000 cells/well in 1 mL NPC media with growth factors. Plates were allowed to grow to ~ 100% confluency for three nights at 37 °C with 5% CO2. […] Plates were allowed to incubate overnight at 37 °C with 5% CO2 for 24 h. […]

SMILES	increase in PGRN protein levels	further results
Cn1ccc2c(-c3cccnc3Oc3ccc(F)cc3)c[nH]c2c1=O [Compound 18B, 3-[2-(4-fluorophenoxy)pyridin-3-yl]-6-methyl-1,6-dihydro-7H-pyrrolo[2,3-c]pyridin-7-one]	significantly enhance PGRN protein levels	–
Cn1ccc2c(-c3cc(F)cnc3Oc3ccc(F)cc3)c[nH]c2c1=O [Compound 86B, 3-(5-fluoro-2-(4-fluorophenoxy)pyridin-3-yl)-6-methyl-1,6-dihydro-7H-pyrrolo[2,3-c]pyridin-7-one]	unable to upregulate PGRN	–
Cn1ccc2c(-c3cccnc3Oc3ccc(F)c(F)c3)c[nH]c2c1=O [Compound 81B, 3-(2-(3,4-difluorophenoxy)pyridin-3-yl)-6-methyl-1,6-dihydro-7H-pyrrolo[2,3-c]pyridin-7-one]	significantly enhance PGRN protein levels	–
CCS(=O)(=O)Nc1ccc(Oc2ccc(F)cc2F)c(-c2cn(C)c(=O)c3[nH]ccc23)c1 [mivebresib]	–	enhancement of PGRN protein levels (100 nM, 24 h): ~ 120%; enhancement of PGRN protein levels after washout (1 µM for 2 h, then 22 h of incubation post-washout): > twofold; enhancement of PGRN protein levels after washout (1 µM for 8 h, washout, lysis 24 h from compound addition): more pronounced effect; Normalized PGRN (Fold-DMSO) (1 µM mivebresib 24 h, vs matching bar without mivebresib): 1.82 x; Normalized PGRN (Fold-DMSO) (1 µM mivebresib 24 h with 300 nM dBET6): 1.26 x; Normalized PGRN (Fold-DMSO) (1 µM mivebresib 24 h with 1 µM MLN-4924 and 300 nM dBET6): 1.47 x; increase in PGRN (1 µM, 8 h): ~ 1.4 fold; enhancement of PGRN protein levels (1 µM, 24 h): ~140%; increase in PGRN (1 µM, 24 h): ~ 2.7 fold
Cn1cc(-c2cccnc2Nc2ccc(F)cc2)c2cc[nH]c2c1=O [Compound 85A, 4-(2-((4-fluorophenyl)amino)pyridin-3-yl)-6-methyl-1,6-dihydro-7H-pyrrolo[2,3-c]pyridin-7-one]	> twofold	–
Cn1cc(-c2cccnc2Oc2ccc(F)cc2)c2cc[nH]c2c1=O [Compound 18A, 4-(2-(4-fluorophenoxy)pyridin-3-yl)-6-methyl-1H-pyrrolo[2,3-c]pyridin-7(6H)-one]	> twofold	–
Cn1ccc2c(-c3cccnc3Sc3ccc(F)cc3)c[nH]c2c1=O [Compound 84B, 3-(2-((4-fluorophenyl)thio)pyridin-3-yl)-6-methyl-1,6-dihydro-7H-pyrrolo[2,3-c]pyridin-7-one]	significantly enhance PGRN protein levels	–
Cn1cc(-c2cc(F)cnc2Oc2ccc(F)cc2)c2cc[nH]c2c1=O [Compound 86A, 4-(5-fluoro-2-(4-fluorophenoxy)pyridin-3-yl)-6-methyl-1,6-dihydro-7H-pyrrolo[2,3-c]pyridin-7-one]	less substantial response	–
Cn1cc(-c2cccnc2Oc2cc(F)cc(F)c2)c2cc[nH]c2c1=O [Compound 82A, 4-(2-(3,5-difluorophenoxy)pyridin-3-yl)-6-methyl-1,6-dihydro-7H-pyrrolo[2,3-c]pyridin-7-one]	> twofold	–
Cn1ccc2c(-c3cccnc3Oc3cc(F)cc(F)c3)c[nH]c2c1=O [Compound 82B, 3-(2-(3,5-difluorophenoxy)pyridin-3-yl)-6-methyl-1,6-dihydro-7H-pyrrolo[2,3-c]pyridin-7-one]	significantly enhance PGRN protein levels	–
Cn1cc(-c2cccnc2Sc2ccc(F)cc2)c2cc[nH]c2c1=O [Compound 84A, 4-(2-((4-fluorophenyl)thio)pyridin-3-yl)-6-methyl-1,6-dihydro-7H-pyrrolo[2,3-c]pyridin-7-one]	less substantial response	–
Cn1cc(-c2cccnc2Oc2ccc(F)c(F)c2)c2cc[nH]c2c1=O [Compound 81A, 4-(2-(3,4-difluorophenoxy)pyridin-3-yl)-6-methyl-1,6-dihydro-7H-pyrrolo[2,3-c]pyridin-7-one]	> twofold	–
Cn1ccc2c(-c3cccnc3Nc3ccc(F)cc3)c[nH]c2c1=O [Compound 85B, 3-(2-((4-fluorophenyl)amino)pyridin-3-yl)-6-methyl-1,6-dihydro-7H-pyrrolo[2,3-c]pyridin-7-one]	unable to upregulate PGRN	–
